The values below come from patent US20160185797A1, “ALKYNYL ALCOHOLS AND METHODS OF USE” (Genentech, Inc., priority 2013, published 2016).

For test [1], the system named is p52 (NF-kB2) nuclear translocation in HeLa cells. Description: p52 (NF-kB2) nuclear translocation assay in HeLa cells, anti-lymphotoxin beta receptor antibody stimulated (non-classical NF-kB signaling), high content imaging. The test is classed as cell-based. Particulars: Homo sapiens, 100 ng/mL anti-lymphotoxin beta receptor antibody for 5 hours, read-out: p52 HeLa Transloc Assay (IC50). The essentials:
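HeLa cells in 10% FBS medium were treated with compound (0.2% DMSO final) and stimulated with 100 ng/mL anti-lymphotoxin beta receptor antibody for 5 h. Fixed cells were immunostained for p52 and imaged with DRAQ5 nuclear stain. Translocation is the nuclear to cytoplasmic intensity ratio, […].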

The test system of test [2] is REL-A (p65) nuclear translocation in HeLa cells. The test is described as follows: REL-A (p65) nuclear translocation assay in HeLa cells, TNF-α stimulated (classical NF-kB signaling), high content imaging. Particulars: Homo sapiens, HeLa, compound 4.5 h, then 10 ng/mL TNF-α for 30 minutes, read-out: REL-A HeLa Transloc Assay (IC50). It is filed as cell-based. The essentials: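 HeLa cells in medium with 10% fetal bovine serum were exposed to compounds (0.2% DMSO final) for 4.5 hours, then stimulated with 10 ng/mL TNF-α for 30 minutes. After fixation in 4% paraformaldehyde and permeabilization with 0.1% Triton X-100, cells were stained with 400 ng/mL anti-REL-A (p65) antibody, an Alexa488 secondary and DRAQ5. Opera imaging quantified the nuclear-to-cytoplasmic signal ratio to give IC50.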

The target of test [3] is T1, nuclear factor-kappa B (NF-kB)-inducing kinase (NIK) (Homo sapiens, UniProt Q99558).
T1 construct: made in house; host or cells: baculovirus-infected insect cells
T1 sequence (Q99558 whole entry): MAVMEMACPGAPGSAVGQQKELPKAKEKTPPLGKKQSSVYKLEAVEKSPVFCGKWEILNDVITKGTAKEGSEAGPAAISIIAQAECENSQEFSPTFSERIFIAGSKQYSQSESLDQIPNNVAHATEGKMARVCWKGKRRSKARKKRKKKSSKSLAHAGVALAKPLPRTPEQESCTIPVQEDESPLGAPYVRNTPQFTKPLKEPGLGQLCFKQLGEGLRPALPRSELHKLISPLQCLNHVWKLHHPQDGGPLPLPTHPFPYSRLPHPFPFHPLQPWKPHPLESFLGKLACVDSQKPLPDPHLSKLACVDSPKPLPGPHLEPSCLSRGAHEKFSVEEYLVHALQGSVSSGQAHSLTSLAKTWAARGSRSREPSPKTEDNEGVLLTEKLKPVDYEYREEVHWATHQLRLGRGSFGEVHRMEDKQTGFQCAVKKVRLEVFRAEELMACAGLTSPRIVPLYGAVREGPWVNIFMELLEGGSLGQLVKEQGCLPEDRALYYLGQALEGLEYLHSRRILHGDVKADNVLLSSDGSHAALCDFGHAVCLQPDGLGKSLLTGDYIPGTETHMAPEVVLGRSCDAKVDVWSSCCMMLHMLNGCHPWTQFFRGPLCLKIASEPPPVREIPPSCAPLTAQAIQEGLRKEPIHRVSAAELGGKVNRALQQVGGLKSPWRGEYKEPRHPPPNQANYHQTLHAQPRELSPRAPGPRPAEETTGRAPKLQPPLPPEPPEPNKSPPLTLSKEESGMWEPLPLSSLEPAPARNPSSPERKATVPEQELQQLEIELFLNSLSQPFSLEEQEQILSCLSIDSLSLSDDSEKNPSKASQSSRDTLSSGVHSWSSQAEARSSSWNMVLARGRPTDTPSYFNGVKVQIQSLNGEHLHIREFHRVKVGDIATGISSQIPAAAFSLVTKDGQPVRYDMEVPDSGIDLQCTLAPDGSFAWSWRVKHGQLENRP
The test is described as follows: NIK enzyme inhibition assay (Transcreener ADP fluorescence polarization, NIK ADP-FP). The test is classed as biochemical.

With `CN1CC[C@@](O)(C#Cc2cccc(-c3nc(OC4COC4)c(N)c(C(N)=O)n3)c2)C1=O` [Example 106, 5-amino-2-[3-[2-[(3R)-3-hydroxy-1-methyl-2-oxo-pyrrolidin-3-yl]ethynyl]phenyl]-6-(oxetan-3-yloxy)pyrimidine-4-carboxamide], the IC50 is 70 nM in test [1] and at least 2000 nM in test [2]. In test [3], this compound gave a Ki of 0.25 nM.

With `CN1CC[C@@](O)(C#Cc2cccc(-c3nc(OC4CCOCC4)c(N)c(C(N)=O)n3)c2)C1=O` [Example 107, 5-amino-2-[3-[2-[(3R)-3-hydroxy-1-methyl-2-oxo-pyrrolidin-3-yl]ethynyl]phenyl]-6-tetrahydropyran-4-yloxy-pyrimidine-4-carboxamide], the values for the IC50 in test [1] and in test [2] were 269 nM and at least 2000 nM, respectively. Also, the Ki in test [3] is 0.4 nM.

`COCCOc1nc(-c2cccc(C#C[C@]3(O)CCN(C)C3=O)c2)nc(C(N)=O)c1N` [Example 108, 5-amino-2-[3-[2-[(3R)-3-hydroxy-1-methyl-2-oxo-pyrrolidin-3-yl]ethynyl]phenyl]-6-(2-methoxyethoxy)pyrimidine-4-carboxamide]: the IC50 in test [1] was 213 nM; in test [2], at least 2000 nM. Also, the affinity in test [3] corresponds to a Ki of 0.65 nM.

Turning to `COCCNc1cnc(-c2cc(C#C[C@]3(O)CCN(C)C3=O)ccc2F)nc1C(N)=O` [Example 109, 2-[2-fluoro-5-[2-[(3R)-3-hydroxy-1-methyl-2-oxo-pyrrolidin-3-yl]ethynyl]phenyl]-5-(2-methoxyethylamino) pyrimidine-4-carboxamide], the results for the IC50 in test [1] and in test [2] were 83.1 nM and at least 2000 nM, respectively. Moreover, in test [3], the Ki came to 0.28 nM.

Take `CN1CC[C@@](O)(C#Cc2ccc(F)c(-c3ncc(N)c(C(N)=O)n3)c2)C1=O` [Example 110, 5-amino-2-[2-fluoro-5-[2-[(3R)-3-hydroxy-1-methyl-2-oxo-pyrrolidin-3-yl]ethynyl]phenyl]pyrimidine-4-carboxamide]: the IC50 in test [1] was 84.3 nM; in test [2] it was at least 2000 nM. The affinity in test [3], expressed as Ki, was 0.14 nM.

As to `Cc1ccnn1-c1cc(C(N)=O)nc(-c2ccc(F)c(C#C[C@]3(O)CCN(C)C3=O)c2)n1` [Example 111, 2-[4-fluoro-3-[2-[(3R)-3-hydroxy-1-methyl-2-oxo-pyrrolidin-3-yl]ethynyl]phenyl]-6-(5-methylpyrazol-1-yl)pyrimidine-4-carboxamide], the results for the IC50 in test [1] and in test [2] were 75.8 nM and at least 2000 nM, respectively. Besides, the Ki in test [3] worked out at 0.37 nM.

Turning to `CN1CC[C@@](O)(C#Cc2cccc(-c3nc(C(N)=O)c(N)n4ccnc34)c2)C1=O` [Example 112, 5-amino-8-[3-[2-[(3R)-3-hydroxy-1-methyl-2-oxo-pyrrolidin-3-yl]ethynyl]phenyl]imidazo[1,2-a] pyrazine-6-carboxamide], the IC50 in test [1] is 88.8 nM; in test [2] it was at least 20000 nM. The compound also returned a Ki in test [3] of 0.05 nM.

With `CN1CC[C@@](O)(C#Cc2cccc(-c3nc(C(N)=O)cn4c(C(F)(F)F)cnc34)c2)C1=O` [Example 113, 8-[3-[2-[(3R)-3-hydroxy-1-methyl-2-oxo-pyrrolidin-3-yl]ethynyl]phenyl]-3-(trifluoromethyl)imidazo [1,2-a]pyrazine-6-carboxamide], the IC50 in test [1] was 212 nM; in test [2], at least 2000 nM. This compound also had a Ki in test [3] of 2.12 nM.

Consider `CCn1ncc2c(-c3cccc(C#C[C@]4(O)CCN(C)C4=O)c3)nc(C(N)=O)cc21` [Example 114, 1-ethyl-4-[3-[2-[(3R)-3-hydroxy-1-methyl-2-oxo-pyrrolidin-3-yl]ethynyl]phenyl]pyrazolo[4,3-c] pyridine-6-carboxamide], for which the IC50 is 211 nM in test [1] and at least 2000 nM in test [2]. In test [3], this compound yielded a Ki of 1.48 nM.

Take `CN1CC[C@@](O)(C#Cc2cc(-c3nc(C(N)=O)c(N)cc3F)ccc2F)C1=O` [Example 116, 3-amino-5-fluoro-6-[4-fluoro-3-[2-[(3R)-3-hydroxy-1-methyl-2-oxo-pyrrolidin-3-yl]ethynyl]phenyl]pyridine-2-carboxamide]: the IC50 worked out at 11.6 nM in test [1] and 12400 nM in test [2]. The Ki in test [3] was determined as 0.05 nM.

As for `CN1CC[C@@](O)(C#Cc2ccc(F)c(-c3cnc(N)c(C(N)=O)n3)c2)C1=O` [Example 117, 3-amino-6-[2-fluoro-5-[2-[(3R)-3-hydroxy-1-methyl-2-oxo-pyrrolidin-3-yl]ethynyl]phenyl] pyrazine-2-carboxamide], the IC50 in test [1] was 12.5 nM; in test [2], at least 20000 nM. For the same compound, the affinity in test [3] corresponds to a Ki of 0.05 nM.

Consider `CN1CC[C@@](O)(C#Cc2cc(-c3ccc(N)c(C(N)=O)n3)c(F)cc2F)C1=O` [Example 118, 3-amino-6-[2,4-difluoro-5-[2-[(3R)-3-hydroxy-1-methyl-2-oxo-pyrrolidin-3-yl]ethynyl]phenyl]pyridine-2-carboxamide], for which the IC50 is 19 nM in test [1] and at least 2000 nM in test [2]. The same compound registered a Ki in test [3] of 0.05 nM.

For `CCNc1ccc(-c2ccc(C#N)c(C#C[C@]3(O)CCN(C)C3=O)c2)nc1C(N)=O` [Example 119, 6-[4-cyano-3-[2-[(3R)-3-hydroxy-1-methyl-2-oxo-pyrrolidin-3-yl]ethynyl]phenyl]-3-(ethylamino) pyridine-2-carboxamide], the IC50 was 108 nM in test [1] and at least 2000 nM in test [2]. Further, the Ki in test [3] came out at 0.1 nM.

Regarding `CN1CC[C@@](O)(C#Cc2cccc(-c3nc(C(N)=O)c(NCc4ccon4)cc3F)c2)C1=O` [Example 120, 5-fluoro-6-[3-[2-[(3R)-3-hydroxy-1-methyl-2-oxo-pyrrolidin-3-yl]ethynyl]phenyl]-3-(isoxazol-3-ylmethylamino)pyridine-2-carboxamide], the IC50 in test [1] is 26.6 nM; in test [2] it was at least 2000 nM. Also, in test [3], affinity was put at a Ki of 0.33 nM.

`CN1CC[C@@](O)(C#Cc2cccc(-c3cc(OC4COC4)cc(C(N)=O)n3)c2)C1=O` [Example 122, 6-[3-[2-[(3R)-3-hydroxy-1-methyl-2-oxo-pyrrolidin-3-yl]ethynyl]phenyl]-4-(oxetan-3-yloxy) pyridine-2-carboxamide]: the figures for the 50% inhibitory concentration (IC50) in test [1] and in test [2] were 226 nM and at least 2000 nM, respectively. The same compound showed a Ki in test [3] of 0.81 nM.

On to `Cc1cc(C(N)=O)nc(-c2cccc(C#C[C@]3(O)CCN(C)C3=O)c2)c1` [Example 123, 6-[3-[2-[(3R)-3-hydroxy-1-methyl-2-oxo-pyrrolidin-3-yl]ethynyl]phenyl]-4-methyl-pyridine-2-carboxamide], for which the IC50 in test [1] was 79.4 nM; in test [2], at least 2000 nM. Further, in test [3], affinity was put at a Ki of 0.09 nM.

As to `CN1CC[C@@](O)(C#Cc2cccc(-c3cc(N)cc(C(N)=O)n3)c2)C1=O` [Example 124, 4-amino-6-[3-[2-[(3R)-3-hydroxy-1-methyl-2-oxo-pyrrolidin-3-yl]ethynyl]phenyl]pyridine-2-carboxamide], the IC50 in test [1] is 300 nM; in test [2], at least 2000 nM. Further, the Ki in test [3] is 0.05 nM.

Take `Cc1ccnn1-c1cc(C(N)=O)nc(-c2cccc(C#C[C@]3(O)CCN(C)C3=O)c2)c1` [Example 125, 6-[3-[2-[(3R)-3-hydroxy-1-methyl-2-oxo-pyrrolidin-3-yl]ethynyl]phenyl]-4-(5-methylpyrazol-1-yl) pyridine-2-carboxamide]: the IC50 in test [1] is 84.2 nM; in test [2] it was at least 2000 nM. In test [3], this compound had a Ki of 1.29 nM.

In the case of `Cc1ccc(-c2cc(C(N)=O)nc(-c3cccc(C#C[C@]4(O)CCN(C)C4=O)c3)c2)cn1` [Example 126, 6-[3-[2-[(3R)-3-hydroxy-1-methyl-2-oxo-pyrrolidin-3-yl]ethynyl]phenyl]-4-(6-methyl-3-pyridyl)pyridine-2-carboxamide], the IC50 in test [1] was 122 nM; in test [2], at least 2000 nM. In test [3], this compound returned a Ki of 0.05 nM.

For the compound `CN1CC[C@@](O)(C#Cc2cccc(-c3cc(-c4cnccn4)cc(C(N)=O)n3)c2)C1=O` [Example 127, 6-[3-[2-[(3R)-3-hydroxy-1-methyl-2-oxo-pyrrolidin-3-yl]ethynyl]phenyl]-4-pyrazin-2-yl-pyridine-2-carboxamide], the figures for the IC50 in test [1] and in test [2] were 183 nM and at least 2000 nM, respectively. The compound further had a Ki in test [3] of 0.08 nM.

In the case of `COCCNc1ccc(-c2cccc(C#C[C@]3(O)CCN(C)C3=O)c2)nc1C(N)=O` [Example 128, 6-[3-[2-[(3R)-3-hydroxy-1-methyl-2-oxo-pyrrolidin-3-yl]ethynyl]phenyl]-3-(2-methoxyethylamino) pyridine-2-carboxamide], the half-inhibitory concentration (IC50) was 27.2 nM in test [1] and at least 2000 nM in test [2]. Also, the affinity in test [3], expressed as Ki, was 0.05 nM.

As to `CN1CC[C@@](O)(C#Cc2cccc(-c3cc(-c4ncccn4)cc(C(N)=O)n3)c2)C1=O` [Example 129, 6-[3-[2-[(3R)-3-hydroxy-1-methyl-2-oxo-pyrrolidin-3-yl]ethynyl]phenyl]-4-pyrimidin-2-yl-pyridine-2-carboxamide], the IC50 was 155 nM in test [1] and at least 2000 nM in test [2]. In test [3], the affinity, expressed as Ki, was 0.3 nM.

In the case of `Cc1nnc([C@](C)(O)C#Cc2cccc(-c3nc(C(N)=O)c(N)cc3F)c2)o1` [Example 130, 3-amino-5-fluoro-6-[3-[(3R)-3-hydroxy-3-(5-methyl-1,3,4-oxadiazol-2-yl)but-1-ynyl]phenyl]pyridine-2-carboxamide], the concentration for half-maximal inhibition (IC50) in test [1] and in test [2] was at least 2000 nM in each case. The Ki in test [3] was found to be 9.05 nM.
